36 compounds from patent US20250320184A1 (SIRONAX LTD., priority 2022, published 2025) can be followed below.

Structures are written as SMILES.

The assay deals with T1, SARM1 (50-724) (Homo sapiens, UniProt Q6SZW1).
T1 sequence (Q6SZW1 50-724): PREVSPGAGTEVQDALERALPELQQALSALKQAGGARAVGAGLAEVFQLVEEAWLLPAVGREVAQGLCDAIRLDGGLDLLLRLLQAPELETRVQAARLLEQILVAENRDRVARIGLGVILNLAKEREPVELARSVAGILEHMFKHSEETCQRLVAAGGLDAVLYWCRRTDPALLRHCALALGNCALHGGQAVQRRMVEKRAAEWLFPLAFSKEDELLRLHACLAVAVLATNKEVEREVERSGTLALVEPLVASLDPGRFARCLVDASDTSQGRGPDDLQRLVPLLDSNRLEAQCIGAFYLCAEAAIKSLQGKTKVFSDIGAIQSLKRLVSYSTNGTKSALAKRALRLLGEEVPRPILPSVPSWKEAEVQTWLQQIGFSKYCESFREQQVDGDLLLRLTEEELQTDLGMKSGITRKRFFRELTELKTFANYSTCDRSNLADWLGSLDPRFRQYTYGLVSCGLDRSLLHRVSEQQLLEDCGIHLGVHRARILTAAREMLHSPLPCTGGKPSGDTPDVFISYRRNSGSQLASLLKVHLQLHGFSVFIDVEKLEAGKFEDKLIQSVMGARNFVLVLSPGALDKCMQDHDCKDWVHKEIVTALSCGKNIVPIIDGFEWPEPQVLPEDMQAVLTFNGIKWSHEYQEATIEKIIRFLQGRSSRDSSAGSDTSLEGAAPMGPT
The assay is described as follows: biochemical.
Experimental: An enzymatic assay was performed in a 384-well plate using Dulbecco's phosphate-buffered saline (PBS) as the reaction buffer. […] The reaction was initiated by adding a mixture of 200 μM nicotinamide mononucleotide (NMN) as activator and 100 μM NAD^+ as substrate. After 1 h of incubation at room temperature, the reaction was terminated with 10 times volume of 70% acetonitrile, then centrifuged at 3800 rpm for 10 min.
As usually defined, the IC50 is the midpoint of a concentration-inhibition curve. Low values mean inhibition by little substance, high ones a need for much substance. Consider `CCC(Nc1ccc2nc[nH]c(=O)c2c1)c1cccc(Cl)c1Cl` (racemic) [Example 146, 6-[1-(2,3-dichlorophenyl)propylamino]-3H-quinazolin-4-one], for which the concentration for half-maximal inhibition (IC50) is < 0.1 µM.
`CCC(Nc1ccc2c(c1)C(=O)NCN2)c1cccc(Cl)c1Cl` (racemic) [Example 147, 6-((1-(2,3-dichlorophenyl)propyl)amino)-2,3-dihydroquinazolin-4(1H)-one] displayed an IC50 of 0.1 to 0.5 µM.
In the case of `CC(Nc1ccc2nccc(=O)n2c1)c1cccc(Cl)c1Cl` (racemic) [Example 148, 7-((1-(2,3-dichlorophenyl)ethyl)amino)-4H-pyrido[1,2-a]pyrimidin-4-one], the IC50 was > 1 µM.
Under `CC(Nc1ccc2cnn(C)c(=O)c2c1)c1cccc(Cl)c1Cl` (racemic) [Example 149, 7-((1-(2,3-dichlorophenyl)ethyl)amino)-2-methylphthalazin-1(2H)-one] stands 0.1 to 0.5 µM; under `CC(Nc1cccc(-c2cccnn2)c1)c1cccc(Cl)c1Cl` (racemic) [Example 150, N-(1-(2,3-dichlorophenyl)ethyl)-3-(pyridazin-3-yl)aniline], > 1 µM.
Take `CC(Nc1ccc2ccn(C)c(=O)c2c1)c1c(Cl)cccc1Cl` (racemic) [Example 151, 7-((1-(2,6-dichlorophenyl)ethyl)amino)-2-methylisoquinolin-1(2H)-one]: the IC50 was 0.1 to 0.5 µM.
For the compound `CCC(Nc1ccc2cc[nH]c(=O)c2c1)c1nccc(Cl)c1Cl` (racemic) [Example 153, 7-((1-(3,4-dichloropyridin-2-yl)propyl)amino)isoquinolin-1(2H)-one], the 50% inhibitory concentration (IC50) is < 0.1 µM.
In turn, `CCC(Nc1ccc2c(c1)C(=O)NCC2)c1nccc(Cl)c1Cl` (racemic) [Example 154, 7-((1-(3,4-dichloropyridin-2-yl)propyl)amino)-3,4-dihydroisoquinolin-1(2H)-one] yielded an IC50 of 0.1 to 0.5 µM.
For `CCC(Nc1ccc2nc[nH]c(=O)c2c1)c1nccc(Cl)c1Cl` (racemic) [Example 155, 6-((1-(3,4-dichloropyridin-2-yl)propyl)amino)quinazolin-4(3H)-one], the IC50 lay within 0.1 to 0.5 µM.
Turning to `CC(Nc1ccc2nc[nH]c(=O)c2c1)c1ccc(F)c(Cl)c1Cl` (racemic) [Example 156, 6-[1-(2,3-dichloro-4-fluoro-phenyl)ethylamino]-3H-quinazolin-4-one], the IC50 is < 0.1 µM.
Turning to `CC(Nc1ccc2c(c1)C(=O)NCN2)c1ccc(F)c(Cl)c1Cl` (racemic) [Example 157, 6-((1-(2,3-dichloro-4-fluorophenyl)ethyl)amino)-2,3-dihydroquinazolin-4(1H)-one], the half-maximal inhibitory concentration (IC50) was 0.1 to 0.5 µM.
As for `O=C1NCCc2ccc(NS(=O)(=O)N3C[C@@H]4CC[C@H]3C4)cc21` (racemic) [Example 167, N-(1-oxo-1,2,3,4-tetrahydroisoquinolin-7-yl)-2-azabicyclo[2.2.1]heptane-2-sulfonamide], the IC50 was > 1 µM.
As for `CC1CCCN(S(=O)(=O)Nc2ccc3c(c2)C(=O)NCC3)C1` (racemic) [Example 169, 3-methyl-N-(1-oxo-1,2,3,4-tetrahydroisoquinolin-7-yl)piperidine-1-sulfonamide], the IC50 was > 1 µM.
Turning to `Cc1c(F)ccc(C(C)Nc2ccc3cc[nH]c(=O)c3c2)c1Cl` (racemic) [Example 192, 7-[1-(2-chloro-4-fluoro-3-methyl-phenyl)ethylamino]-2H-isoquinolin-1-one], the IC50 was < 0.1 µM.
For `CC(Nc1ccc2nc[nH]c(=O)c2c1)c1c(Cl)ccc(F)c1Cl` (racemic) [Example 193, 6-((1-(2,6-dichloro-3-fluorophenyl)ethyl)amino)quinazolin-4(3H)-one] the value was < 0.1 µM; for `CC(Nc1ccc2nc[nH]c(=O)c2c1)c1c(Cl)ccc(Cl)c1Cl` (racemic) [Example 195, 6-((1-(2,3,6-trichlorophenyl)ethyl)amino)quinazolin-4(3H)-one], < 0.1 µM; for `CC(Nc1ccc2cn[nH]c(=O)c2c1)c1c(Cl)ccc(Cl)c1Cl` (racemic) [Example 198, 7-((1-(2,3,6-trichlorophenyl)ethyl)amino)phthalazin-1(2H)-one], < 0.1 µM.
For `CC(Nc1ccc2cn[nH]c(=O)c2c1)c1cc(F)cc(Cl)c1Cl` (racemic) [Example 200, 7-((1-(2,3-dichloro-5-fluorophenyl)ethyl)amino)phthalazin-1(2H)-one], the half-inhibitory concentration (IC50) lay within 0.1 to 0.5 µM.
`CC(Nc1ccc2cc[nH]c(=O)c2c1)c1ccc(F)c(Cl)c1Cl` (racemic) [Example 203, 7-[1-(2,3-dichloro-4-fluoro-phenyl)ethylamino]-2H-isoquinolin-1-one]: the IC50 is < 0.1 µM.
As for `CC(Nc1ccc2cc[nH]c(=O)c2n1)c1cc(F)cc(Cl)c1Cl` (racemic) [Example 205, 2-((1-(2,3-dichloro-5-fluorophenyl)ethyl)amino)-1,7-naphthyridin-8(7H)-one], the IC50 was < 0.1 µM.
For the compound `CC(Nc1ccc2c(c1)NC(=O)C2(C)C)c1nccc(Cl)c1Cl` (racemic) [Example 210, 6-((1-(3,4-dichloropyridin-2-yl)ethyl)amino)-3,3-dimethylindolin-2-one], the half-maximal inhibitory concentration (IC50) is < 0.1 µM.
As to `Cc1nc(C(C)Nc2ccc3cc[nH]c(=O)c3c2)sc1C` (racemic) [Example 213, 7-((1-(4,5-dimethylthiazol-2-yl)ethyl)amino)isoquinolin-1(2H)-one], the IC50 was < 0.1 µM.
`CC(Nc1ccc2cc[nH]c(=O)c2c1)c1nn2c(c1Cl)CCC2` (racemic) [Example 221, 7-((1-(3-chloro-5,6-dihydro-4H-pyrrolo[1,2-b]pyrazol-2-yl)ethyl)amino)isoquinolin-1(2H)-one] came in with an IC50 of 0.1 to 0.5 µM.
Under `Cc1n[nH]c(=O)c2cc(NC(C)c3c(Cl)ccc(F)c3Cl)ccc12` (racemic) [Example 222, 7-((1-(2,6-dichloro-3-fluorophenyl)ethyl)amino)-4-methylphthalazin-1(2H)-one] stands < 0.1 µM.
Consider `Cc1n[nH]c(=O)c2cc(NC(C)c3nc(Cl)c(Cl)s3)ccc12` (racemic) [Example 223, 7-((1-(4,5-dichlorothiazol-2-yl)ethyl)amino)-4-methylphthalazin-1(2H)-one], for which the IC50 was < 0.1 µM.
Under `CC1(C)C(=O)Nc2cc(NC(CO)c3c(Cl)ccc(F)c3Cl)ccc21` (racemic) [Example 238, 6-((1-(2,6-dichloro-3-fluorophenyl)-2-hydroxyethyl)amino)-3,3-dimethylindolin-2-one] stands < 0.1 µM.
Consider `CC(Nc1ccc2c(c1)NC(=O)C21CC1)c1nc(Cl)c(Cl)s1` (racemic) [Example 244, 6′-((1-(4,5-dichlorothiazol-2-yl)ethyl)amino)spiro[cyclopropane-1,3′-indolin]-2′-one], for which the 50% inhibitory concentration (IC50) was < 0.1 µM.
`Cc1n[nH]c(=O)c2cc(NC(CO)c3c(Cl)ccc(F)c3Cl)ccc12` (racemic) [Example 250, 7-[[1-(2,6-dichloro-3-fluoro-phenyl)-2-hydroxy-ethyl]amino]-4-methyl-2H-phthalazin-1-one]: the IC50 is < 0.1 µM.
Take `CCC(Nc1ccc2c(Cl)n[nH]c(=O)c2c1)c1nc(Cl)c(Cl)s1` (racemic) [Example 254, 4-chloro-7-[1-(4,5-dichlorothiazol-2-yl)propylamino]-2H-phthalazin-1-one]: the IC50 is < 0.1 µM.
With `CC1(C)C(=O)Nc2cc(NC(CCO)c3nc(Cl)c(Cl)s3)ccc21` (racemic) [Example 292, 6-((1-(4,5-dichlorothiazol-2-yl)-3-hydroxypropyl)amino)-3,3-dimethylindolin-2-one], the IC50 was < 0.1 µM.
Take `Cc1n[nH]c(=O)c2cc(NC(CCO)c3nc(Cl)c(Cl)s3)ccc12` (racemic) [Example 294]: the IC50 was < 0.1 µM.
Turning to `CC(Nc1cc(F)c2ncn(-c3ccn[nH]3)c(=O)c2c1)c1nc(Cl)c(Cl)s1` (racemic) [Example 356rac, 6-((1-(4,5-dichlorothiazol-2-yl)ethyl)amino)-8-fluoro-3-(1H-pyrazol-5-yl)quinazolin-4(3H)-one], the half-maximal inhibitory concentration (IC50) was < 0.1 µM.
As for `CC(Nc1cc(F)c2ncn(-c3nc[nH]n3)c(=O)c2c1)c1nc(Cl)c(Cl)s1` (racemic) [Example 359, 6-((1-(4,5-dichlorothiazol-2-yl)ethyl)amino)-8-fluoro-3-(1H-1,2,4-triazol-3-yl)quinazolin-4(3H)-one], the half-maximal inhibitory concentration (IC50) is < 0.1 µM.
Under `CC(Nc1cc(F)c2ncn(-c3nncs3)c(=O)c2c1)c1nc(Cl)c(Cl)s1` (racemic) [Example 369, 6-((1-(4,5-dichlorothiazol-2-yl)ethyl)amino)-8-fluoro-3-(1,3,4-thiadiazol-2-yl)quinazolin-4(3H)-one] stands < 0.1 µM; under `CC(Nc1cc(F)c2ncn(-c3n[nH]cc3Cl)c(=O)c2c1)c1nc(Cl)c(Cl)s1` (racemic) [Example 370, 3-(4-chloro-1H-pyrazol-3-yl)-6-((1-(4,5-dichlorothiazol-2-yl)ethyl)amino)-8-fluoroquinazolin-4(3H)-one], < 0.1 µM.
With `Cc1cn[nH]c1-n1cnc2c(F)cc(NC(C)c3nc(Cl)c(Cl)s3)cc2c1=O` (racemic) [Example 371, 6-((1-(4,5-dichlorothiazol-2-yl)ethyl)amino)-8-fluoro-3-(4-methyl-1H-pyrazol-5-yl)quinazolin-4(3H)-one], the IC50 was < 0.1 µM.
